By IC50 is commonly meant the point on the concentration scale where inhibition reaches its midpoint.

Read-outs that look alike come from different tables or passages of the source.

Data on 26 compounds can be found in patent US20140206681A1, “BTK INHIBITORS” (priority 2013, published 2014).

The target in this assay is T1, BTK enzyme (recombinant full-length BTK, hBTK) (Homo sapiens, UniProt Q06187).
T1 construct: recombinant protein from baculovirus-transfected Sf9 cells: full-length BTK, 6HIS-tag cleaved; 6HIS (cleaved yes); made in house; host or cells: baculovirus-transfected Sf9 cells
T1 sequence (Q06187 whole entry): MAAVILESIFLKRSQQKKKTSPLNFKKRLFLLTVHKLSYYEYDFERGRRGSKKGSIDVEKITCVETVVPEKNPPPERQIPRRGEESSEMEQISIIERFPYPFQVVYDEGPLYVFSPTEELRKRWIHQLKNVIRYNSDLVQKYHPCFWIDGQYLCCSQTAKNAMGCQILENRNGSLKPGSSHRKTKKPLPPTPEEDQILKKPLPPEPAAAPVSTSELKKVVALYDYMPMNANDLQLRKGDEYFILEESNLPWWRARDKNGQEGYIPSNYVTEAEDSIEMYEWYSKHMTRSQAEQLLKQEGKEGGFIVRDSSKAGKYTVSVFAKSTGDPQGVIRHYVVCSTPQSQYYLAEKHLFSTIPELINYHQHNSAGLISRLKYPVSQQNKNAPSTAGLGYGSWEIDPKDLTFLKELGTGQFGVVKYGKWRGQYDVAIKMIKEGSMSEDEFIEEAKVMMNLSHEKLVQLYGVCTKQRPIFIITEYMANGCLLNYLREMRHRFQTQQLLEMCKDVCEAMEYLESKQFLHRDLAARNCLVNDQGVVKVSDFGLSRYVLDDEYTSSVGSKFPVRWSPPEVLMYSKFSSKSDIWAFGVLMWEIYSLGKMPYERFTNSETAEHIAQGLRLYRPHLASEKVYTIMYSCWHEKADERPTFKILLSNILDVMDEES
In words: BTK enzyme activity assay, LANCE TR-FRET. Format: biochemical. The conditions noted are these: 50 pM hBTK, 2 μM biotin-A5-peptide, 25 μM ATP, 60 min compound & enzyme incubation. For orientation: Time-resolved FRET reads energy transfer from a long-lived donor to a nearby acceptor.

[1] abbreviates: read-out: IC50 BTK activity value.

For the compound `Nc1nccn2c([C@H]3CC[C@@H]4COC(=O)N4C3)nc(-c3ccc(C(=O)Nc4cc(C(F)(F)F)ccn4)cc3F)c12` (stereo in doubt) [Example 13, 4-(8-amino-3-((6S,8aR)-3-oxohexahydro-1H-oxazolo[3,4-a]pyridin-6-yl)imidazo[1,5-a]pyrazin-1-yl)-3-fluoro-N-(4-(trifluoromethyl)pyridin-2-yl)benzamide], under setting [1], the IC50 was found to be 1.3 nM.
Consider `Nc1nccn2c([C@H]3CC[C@H]4COC(=O)N4C3)nc(-c3ccc(C(=O)Nc4cc(C(F)(F)F)ccn4)cc3)c12` [Example 1, 4-(8-amino-3-((6S,8aS)-3-oxohexahydro-1H-oxazolo[3,4-a]pyridin-6-yl)imidazo[1,5-a]pyrazin-1-yl)-N-(4-(trifluoromethyl)pyridin-2-yl)benzamide], for which the IC50 (IC50 BTK activity value) stood at 5.5 nM.
In the case of `Nc1nccn2c([C@@H]3CC[C@@H]4COC(=O)N4C3)nc(-c3ccc(C(=O)Nc4cc(C(F)(F)F)ccn4)cc3)c12` [Example 2, 4-(8-amino-3-((6R,8aR)-3-oxohexahydro-1H-oxazolo[3,4-a]pyridin-6-yl)imidazo[1,5-a]pyrazin-1-yl)-N-(4-(trifluoromethyl)pyridin-2-yl)benzamide], the IC50 (IC50 BTK activity value) turned out to be 15.6 nM.
As for `Nc1nccn2c([C@@H]3CC[C@H]4CCC(=O)N4C3)nc(-c3ccc(C(=O)Nc4cc(OC5CC5)ccn4)cc3)c12` [Example 5, 4-(8-amino-3-((6R,8aS)-3-oxooctahydroindolizin-6-yl)imidazo[1,5-a]pyrazin-1-yl)-N-(4-cyclopropoxypyridin-2-yl)benzamide], under setting [1], the IC50 was 0.24 nM.
In the case of `Nc1nccn2c([C@@H]3CC[C@H]4CCC(=O)N4C3)nc(-c3ccc(C(=O)Nc4cc(C5CCC5)ccn4)cc3)c12` [Example 7, 4-(8-amino-3-((6R,8aS)-3-oxooctahydroindolizin-6-yl)imidazo[1,5-a]pyrazin-1-yl)-N-(4-cyclobutylpyridin-2-yl)benzamide], under setting [1], the IC50 was 60.6 nM.
Regarding `Nc1nccn2c([C@@H]3CC[C@H]4COC(=O)N4C3)nc(-c3ccc(C(=O)Nc4cc(C(F)(F)F)ccn4)cc3F)c12` [Example 12, 4-(8-amino-3-((6R,8aS)-3-oxohexahydro-1H-oxazolo[3,4-a]pyridin-6-yl)imidazo[1,5-a]pyrazin-1-yl)-3-fluoro-N-(4-(trifluoromethyl)pyridin-2-yl)benzamide], under setting [1], the IC50 was found to be 0.083 nM.
As to `Nc1nccn2c([C@@H]3CC[C@H]4CCC(=O)N4C3)nc(-c3ccc(C(=O)Nc4cc(C(F)F)ccn4)cc3F)c12` [Example 14, 4-{8-amino-3-[(6R,8aS)-3-oxooctahydroindolizin-6-yl]imidazo[1,5-a]pyrazin-1-yl}-N-[4-(difluoromethyl)pyridin-2-yl]-3-fluorobenzamide], the IC50 under setting [1] came to 0.12 nM.
Regarding `Nc1nccn2c([C@@H]3CC[C@H]4CCC(=O)N4C3)nc(-c3ccc(C(=O)Nc4cc(C(F)F)ccn4)cc3)c12` [Example 17], under setting [1], the IC50 worked out at 0.31 nM.
Turning to `Cc1cc(-c2nc([C@@H]3CC[C@H]4CCC(=O)N4C3)n3ccnc(N)c23)ccc1C(=O)Nc1cc(C(F)(F)F)ccn1` [Example 22, 4-{8-amino-3-[(6R,8aS)-3-oxooctahydroindolizin-6-yl]imidazo[1,5-a]pyrazin-1-yl}-2-methyl-N-[4-(trifluoromethyl)pyridin-2-yl]benzamide], the IC50 under setting [1] turned out to be 0.41 nM.
Regarding `CC(F)(F)c1ccnc(NC(=O)c2ccc(-c3nc([C@@H]4CC[C@H]5CCC(=O)N5C4)n4ccnc(N)c34)cc2F)c1` [Example 25, 4-{8-amino-3-[(6R,8aS)-3-oxooctahydroindolizin-6-yl]imidazo[1,5-a]pyrazin-1-yl}-N-[4-(1,1-difluoroethyl)pyridin-2-yl]-2-fluorobenzamide], the IC50 under setting [1] was 0.54 nM.
Regarding `Nc1nccn2c([C@@H]3CC[C@H]4CCC(=O)N4C3)nc(-c3ccc(C(=O)Nc4cc(C(F)F)ccn4)c(F)c3)c12` [Example 26, 4-{8-amino-3-[(6R,8aS)-3-oxooctahydroindolizin-6-yl]imidazo[1,5-a]pyrazin-1-yl}-N-[4-(difluoromethyl)pyridin-2-yl]-2-fluorobenzamide], the IC50 under setting [1] stood at 1.5 nM.
Regarding `Nc1nccn2c([C@@H]3CC[C@H]4CCC(=O)N4C3)nc(-c3ccc(C(=O)Nc4cc(C5CC5)ccn4)c(F)c3)c12` [Example 27, 4-{8-amino-3-[(6R,8aS)-3-oxooctahydroindolizin-6-yl]imidazo[1,5-a]pyrazin-1-yl}-N-(4-cyclopropylpyridin-2-yl)-2-fluorobenzamide], the IC50 under setting [1] was 1.1 nM.
Same read-out and setting: with `Cc1cc(-c2nc([C@@H]3CC[C@H]4CCC(=O)N4C3)n3ccnc(N)c23)ccc1C(=O)Nc1cc(C2CC2)ccn1` [Example 28, 4-{8-amino-3-[(6R,8aS)-3-oxooctahydroindolizin-6-yl]imidazo[1,5-a]pyrazin-1-yl}-N-(4-cyclopropylpyridin-2-yl)-2-methylbenzamide] the figure was 0.64 nM.
`Nc1nccn2c([C@@H]3CC[C@H]4CCC(=O)N4C3)nc(-c3ccc(C(=O)Nc4cc(C5(F)COC5)ccn4)cc3)c12` [Example 29, 4-{8-amino-3-[(6R,8aS)-3-oxooctahydroindolizin-6-yl]imidazo[1,5-a]pyrazin-1-yl}-N-[4-(3-fluorooxetan-3-yl)pyridin-2-yl]benzamide]: the IC50 under setting [1] was 1.9 nM.
`CC(C)(F)c1ccnc(NC(=O)c2ccc(-c3nc([C@@H]4CC[C@H]5CCC(=O)N5C4)n4ccnc(N)c34)cc2)c1` [Example 30, 4-{8-amino-3-[(6R,8aS)-3-oxooctahydroindolizin-6-yl]imidazo[1,5-a]pyrazin-1-yl}-N-[4-(1-fluoro-1-methylethyl)pyridin-2-yl]benzamide]: under setting [1], the IC50 was 0.85 nM.
On the same count and under the same terms, with `C[C@H]1OC(=O)N2C[C@H](c3nc(-c4ccc(C(=O)Nc5cc(C6CC6)ccn5)cc4F)c4c(N)nccn34)CC[C@@H]12` [Example 32, 4-{8-amino-3-[(1R,6R,8aS)-1-methyl-3-oxohexahydro[1,3]oxazolo[3,4-a]pyridin-6-yl]imidazo[1,5-a]pyrazin-1-yl}-N-(4-cyclopropylpyridin-2-yl)-3-fluorobenzamide] the figure was 0.21 nM; with `N#Cc1ccnc(NC(=O)c2ccc(-c3nc([C@@H]4CC[C@H]5CCC(=O)N5C4)n4ccnc(N)c34)cc2F)c1` [Example 34, 4-{8-amino-3-[(6R,8aS)-3-oxooctahydroindolizin-6-yl]imidazo[1,5-a]pyrazin-1-yl}-N-(4-cyanopyridin-2-yl)-2-fluorobenzamide], 2.5 nM; with `COc1cc(C(=O)Nc2cc(C#N)ccn2)ccc1-c1nc([C@@H]2CC[C@H]3CCC(=O)N3C2)n2ccnc(N)c12` [Example 35, 4-{8-amino-3-[(6R,8aS)-3-oxooctahydroindolizin-6-yl]imidazo[1,5-a]pyrazin-1-yl}-N-(4-cyanopyridin-2-yl)-3-methoxybenzamide], 1.1 nM.
Take `Cc1cc(-c2nc([C@@H]3CC[C@H]4CCC(=O)N4C3)n3ccnc(N)c23)ccc1C(=O)Nc1cc(C#N)ccn1` [Example 36, 4-{8-amino-3-[(6R,8aS)-3-oxooctahydroindolizin-6-yl]imidazo[1,5-a]pyrazin-1-yl}-N-(4-cyanopyridin-2-yl)-2-methylbenzamide]: the IC50 under setting [1] came out at 0.98 nM.
Same read-out and setting: in the case of `C[C@@H]1OC(=O)N2C[C@H](c3nc(-c4ccc(C(=O)Nc5cc(C6CC6)ccn5)cc4F)c4c(N)nccn34)CC[C@@H]12` [Example 37, 4-{8-amino-3-[(1S,6R,8aS)-1-methyl-3-oxohexahydro[1,3]oxazolo[3,4-a]pyridin-6-yl]imidazo[1,5-a]pyrazin-1-yl}-N-(4-cyclopropylpyridin-2-yl)-3-fluorobenzamide] it was 0.39 nM; in that of `Nc1nccn2c([C@@H]3CC[C@H]4CCC(=O)N4C3)nc(-c3ccc(C(=O)Nc4cc(OC5CC5)ccn4)cc3F)c12` [Example 43, 4-{8-amino-3-[(6R,8aS)-3-oxooctahydroindolizin-6-yl]imidazo[1,5-a]pyrazin-1-yl}-N-[4-(cyclopropyloxy)pyridin-2-yl]-3-fluorobenzamide], 0.13 nM; in that of `Nc1nccn2c([C@@H]3CC[C@@H]4CNCC(=O)N4C3)nc(-c3ccc(C(=O)Nc4cc(C(F)(F)F)ccn4)cc3)c12` [Example 54, 4-{8-amino-3-[(7R,9aR)-4-oxooctahydro-2H-pyrido[1,2-a]pyrazin-7-yl]imidazo[1,5-a]pyrazin-1-yl}-N-[4-(trifluoromethyl)pyridin-2-yl]benzamide], 9.6 nM.
Still for that read-out and setting: with `Nc1nccn2c([C@@H]3CC[C@H]4COCCN4C3)nc(-c3ccc(C(=O)Nc4cc(C(F)(F)F)ccn4)cc3)c12` [Example 55, 4-{8-amino-3-[(7R,9aS)-octahydropyrido[2,1-c][1,4]oxazin-7-yl]imidazo[1,5-a]pyrazin-1-yl}-N-[4-(trifluoromethyl)pyridin-2-yl]benzamide] the figure was 0.3 nM; with `C[C@@H]1CC(=O)N2C[C@H](c3nc(-c4ccc(C(=O)Nc5cc(C(F)(F)F)ccn5)cc4)c4c(N)nccn34)CC[C@@H]12` [Example 62, 4-{8-amino-3-[(1R,6R,8aS)-1-methyl-3-oxooctahydroindolizin-6-yl]imidazo[1,5-a]pyrazin-1-yl}-N-[4-(trifluoromethyl)pyridin-2-yl]benzamide], 6.7 nM.
Consider `Nc1nccn2c([C@@H]3CC[C@@H]4C[C@H](O)C(=O)N4C3)nc(-c3ccc(C(=O)Nc4cc(C(F)(F)F)ccn4)cc3)c12` [Example 75, 4-{8-amino-3-[(2S,6R,8aR)-2-hydroxy-3-oxooctahydroindolizin-6-yl]imidazo[1,5-a]pyrazin-1-yl}-N-[4-(trifluoromethyl)pyridin-2-yl]benzamide], for which, under setting [1], the IC50 was found to be 7.6 nM.
As to `CC(C)(C(=O)O)N1CC(=O)N2C[C@H](c3nc(-c4ccc(C(=O)Nc5cc(C(F)(F)F)ccn5)cc4)c4c(N)nccn34)CC[C@H]2C1` [Example 86, 2-((7R,9aS)-7-(8-amino-1-(4-((4-(trifluoromethyl)pyridin-2-yl)carbamoyl)phenyl)imidazo[1,5-a]pyrazin-3-yl)-4-oxohexahydro-1H-pyrido[1,2-a]pyrazin-2(6H)-yl)-2-methylpropanoic acid], under setting [1], the half-maximal inhibitory concentration (IC50) stood at 0.45 nM.
